Test results taken from ChEMBL document CHEMBL1157539, “Thousands of chemical starting points for antimalarial lead identification” (Nature, 2010).

Test system: Plasmodium falciparum
Test: GSK_TCMDC: Inhibition of Plasmodium falciparum 3D7 in whole erythrocytes, using parasite LDH activity as an index of growth.
Type: functional, organism-based
Conditions: Plasmodium falciparum, 3D7

`COc1nc2c(CCN3CCC(NCc4ccc5c(c4)NC(=O)CO5)CC3)c(Cl)cnc2cc1F` showed an XC50 of 0.771 µM.
With `Oc1ccc2c(CNC3CCCCC3)c(O)ccc2c1CNC1CCCCC1` the XC50 was 0.0435 µM.
For `CN(C)C1CCN(Cc2ccc(N3CCN(Cc4cccc5[nH]ccc45)CC3)nc2)CC1`, the XC50 was 1.53 µM.
`CN(C)c1ccc(CN2CCC(NC(=O)c3ccc(-c4cccc(Cl)c4)s3)CC2)cc1` was tested, and the XC50 was 0.924 µM.
Compound `Nc1cccc(CNCc2cccc(-c3cccc(-c4nc5cc(C(F)(F)F)ccc5[nH]4)c3)c2)c1` has an XC50 of 0.51 µM.
With `CCN(CC)CCCNc1nccc(N2CCc3ncnc(Nc4ccc(OCc5cccc(F)c5)c(Cl)c4)c3C2)n1` the XC50 was 0.111 µM.
Compound `CC(C)[C@H](NC(=O)c1ccc(O)c(-c2cccc(C(F)(F)F)c2)c1)C(=O)NCCN1CCCCC1` has an XC50 of 0.836 µM.
Compound `O=C(/C=C/c1ccc(Cl)c(Cl)c1)NCCC1CCC(N2CCC(c3c[nH]c4ccc(O)cc34)CC2)CC1` (stereo not drawn) has an XC50 of 0.762 µM.
For `COc1cc(Cc2cnc(N)nc2N)cc(OCCCN2C(=O)c3ccccc3C2=O)c1OC`, the XC50 was 0.985 µM.
`Cc1[nH]c(C)c(-c2ccc(Oc3ccc(Cl)cc3)cc2)c(=O)c1Br` gave an XC50 of 0.592 µM.
With `O=[N+]([O-])c1cccc(-c2ccc(C=NNc3cc(N4CCCC4)nc(N4CCCC4)n3)o2)c1` the XC50 was 0.713 µM.
In the case of `COc1ccc2nccc([C@@H](O)CN3CCC(NC(=O)c4cc5c(Cl)cc(Cl)cc5[nH]4)CC3)c2c1`, the XC50 is reported as 0.233 µM.
With `CC1(C)NC(N)=NC(=N)N1OCCCNC(=O)c1ccc([N+](=O)[O-])cc1` the XC50 was 0.0032 µM.
For `CC(C)NC(=O)Cn1cc(C2CCN(CC3CCN(C(=O)/C=C/c4ccc(Cl)c(Cl)c4)CC3)CC2)c2ccccc21`, the XC50 was 1.03 µM.
With `Cn1nccc1C(=O)NCCNCc1ccc(-c2ccc(-c3nc4ccccc4[nH]3)s2)cc1` the XC50 was 0.559 µM.
With `O=C(Cc1cccc(OCCCN(Cc2cccc(C(F)(F)F)c2Cl)CC(c2ccccc2)c2ccccc2)c1)NCc1ccco1` the XC50 was 0.937 µM.
`COc1ccc2ncc(F)c(CCN3CC(O)C(CNCc4ccc5c(n4)NC(=O)CS5)C3)c2c1` (stereo not drawn) showed an XC50 of 0.784 µM.
Compound `COc1ccc(Cl)cc1N1CCN(CCCNC(=O)c2ccc(-c3nc4cc(Cl)c(F)cc4[nH]3)c(F)c2)CC1` has an XC50 of 1.11 µM.
Compound `CN(C)CCCNc1ncnc2c1[nH]c1ccc(Cl)cc12` has an XC50 of 0.279 µM.
Compound `CCCNCc1ccc(-c2ccc(CN(CC3CCCO3)C(=O)COc3ccccc3Cl)cc2)nc1` (stereo not drawn) has an XC50 of 1.18 µM.
In the case of `O=C(Nc1cccc(CN2CCN(Cc3ccc(O)cc3)CC2)c1)c1ccc(Cl)c(Cl)c1`, the XC50 is reported as 0.253 µM.
With `CS(=O)(=O)c1ccc(-c2cnc(N)c(-c3ccc(O)cc3)c2)cc1` the XC50 was 1.36 µM.
`C/N=C(/Nc1c(Cl)cccc1Cl)N(C)C` was tested, and the XC50 was 0.82 µM.
`CCN(CC)C(=O)C1CCCN(C(=O)Nc2cc(C(F)(F)F)cc(C(F)(F)F)c2)C1` (stereo not drawn) gave an XC50 of 0.996 µM.
In the case of `COC(=O)c1ccc(CC(C)NCC(O)c2ccc3ccc4ccccc4c3c2)cc1` (stereo not drawn), the XC50 is reported as 0.223 µM.
Compound `N#Cc1ccc(N2CCN(Cc3ccc(-c4ccc(-c5nc6ccccc6[nH]5)s4)cc3)CC2)nc1` has an XC50 of 1.08 µM.
Work on `COc1ccccc1Cc1c(C)nc2nc(N)nc(N)c2c1C` yielded an XC50 of 0.569 µM.
`CN1CCC(N(C)C(=O)C=Cc2cn(-c3ccccc3)nc2-c2cc3ccccc3o2)CC1` was tested, and the XC50 was 1.34 µM.
For `CCN1CCC(N(Cc2ccc(-c3ccc(C(F)(F)F)cc3)cc2)C(=O)Cn2c(CCc3cccc(F)c3F)cc(=O)c3c2CCCC3)CC1`, the XC50 was 0.755 µM.
Compound `Cc1cc(-c2ccc(CNC3CCN(C)CC3)cc2)ccc1S(=O)(=O)NCc1ccccc1` has an XC50 of 0.851 µM.
`Cc1cccc2nc(-c3ccc(-c4ccc(CN5CCN(CCO)CC5)cc4)s3)[nH]c12` gave an XC50 of 0.712 µM.
`C=CCn1c(SCc2c(C)noc2C)nc2scc(-c3cccs3)c2c1=O` gave an XC50 of 1.1 µM.
Compound `CCN1CCN(c2ccc(Nc3ccnc4ccc(Br)cc34)cc2)CC1` has an XC50 of 0.3 µM.
With `O=[N+]([O-])c1ccc(CNCCCCCCNCc2ccc([N+](=O)[O-])c3ccccc23)c2ccccc12` the XC50 was 0.787 µM.
Compound `O=C(NCc1cccc(Br)c1)c1ccc(CNC2CCN(Cc3ccccc3)CC2)cc1` has an XC50 of 0.875 µM.
`Cc1c(CNCCCNc2nc3ccncc3[nH]2)sc(Br)c1Br` gave an XC50 of 1.04 µM.
With `COc1ccc2ccc(F)c(CC(=O)N3CCOC(CNCc4cccc(-c5ccsc5)n4)C3)c2n1` (stereo not drawn) the XC50 was 1.17 µM.
For `COc1c(C2CCN(CCN3CCC(NC(=O)c4ccc(-c5ccc(C(F)(F)F)cc5)cc4)CC3)CC2)ccc2c1CCCC2`, the XC50 was 1.36 µM.
`COC(=O)c1cccc(CNCc2cccc(-c3cccc(-c4nc5cc(F)ccc5[nH]4)c3)c2)c1` showed an XC50 of 0.129 µM.
With `CCn1cc(CN2CCCC(C(=O)Nc3ccc(-c4nc5ccccc5[nH]4)cc3)C2)cn1` (stereo not drawn) the XC50 was 0.927 µM.
With `CC(=O)N1CCC(C(=O)Nc2ccc(-c3cccc(-c4nc5cccc(C)c5[nH]4)c3)cc2)CC1` the XC50 was 0.313 µM.
`c1cc(CN2CCN(CCN3CCOCC3)CC2)cc(-c2ccc(-c3nc4ccccc4[nH]3)cc2)c1` gave an XC50 of 0.131 µM.
With `CC1CN(c2cnn(C/C=C/c3ccc(NC(=O)c4ccc5nonc5c4)cc3)c(=O)c2Cl)CC(C)N1` (stereo not drawn) the XC50 was 0.786 µM.
For `COc1ccc(CNCc2cccc(-c3cccc(-c4nc5cc(C(F)(F)F)ccc5[nH]4)c3)c2)cc1`, the XC50 was 0.196 µM.
`Clc1cccc(CNc2nc(NCCc3c[nH]cn3)nc(NC3CCCCC3)n2)c1` was tested, and the XC50 was 0.79 µM.
For `Cc1ccn2c(C(=O)N3CCN(c4cccc5c4nc(-c4ccoc4)n5Cc4ccccn4)CC3)c(C)nc2c1`, the XC50 was 0.203 µM.
With `Clc1ccc(CNc2nc(NCCc3c[nH]cn3)nc(NC3CCCCC3)n2)cc1` the XC50 was 0.209 µM.
In the case of `O=C(Nc1ccc2c(c1)OCO2)c1cc(-c2cccnc2)cnc1NCc1ccc2c(c1)OCO2`, the XC50 is reported as 1.19 µM.
`O=C(NC1CCN(Cc2ccccc2O)C1)c1cccc(C(F)(F)F)c1` (stereo not drawn) gave an XC50 of 0.73 µM.
With `COc1c(OC)c(OC)c2ccccc2c1CNCCCCCCNCc1c(OC)c(OC)c(OC)c2ccccc12` the XC50 was 0.759 µM.
In the case of `CNC(=O)c1ccccc1Nc1cc(Nc2cc(OC)ccn2)ncc1Cl`, the XC50 is reported as 0.93 µM.
`Cc1cc(N[C@@H](Cc2ccccc2)C(=O)NCc2cccs2)nc(NCCc2ccccc2)n1` was tested, and the XC50 was 0.79 µM.
For `COc1cccc(CNC[C@@H](O)[C@H](Cc2ccccc2)NC(=O)c2cc3c4c(c2)c(C(C)C)cn4CCS(=O)(=O)N3C)c1`, the XC50 was 0.154 µM.
`O=C1C([N+](=O)[O-])=C(O)c2c(F)cccc21` gave an XC50 of 0.149 µM.
Compound `COC(C(=O)OCCC1CCCN1C)(c1ccccc1)C1CCCCC1` (stereo not drawn) has an XC50 of 0.711 µM.
In the case of `Oc1cc(NCc2ccccc2NCc2ccc(Cl)c(Cl)c2)nc2ccccc12`, the XC50 is reported as 0.842 µM.
`CN(C(=O)C(C)(C)Oc1ccc(Cl)cc1)C1CCN(CCCCCNC(=O)/C=C/c2ccc(Cl)c(Cl)c2)CC1` was tested, and the XC50 was 0.916 µM.
Work on `O=C(O)CCCN1CCCC(=C(c2ccccc2)c2ccccc2)C1` yielded an XC50 of 1.19 µM.
Work on `CCCCCCN1CCC(NCc2cccc(-n3ccnc3)c2)CC1` yielded an XC50 of 0.255 µM.
`Cc1cc(N[C@@H](Cc2ccccc2)C(=O)Nc2ccccc2)nc(NCCN2CCCC2)n1` gave an XC50 of 1.81 µM.
`NC12CC3CC(CC(C3)C1)C2` [AMANTADINE] gave an XC50 of 0.164 µM.
`COc1ccc(O)cc1/C=N/Nc1ccnc2cc(Cl)ccc12` gave an XC50 of 0.544 µM.
Work on `O=C(NC1CCCCC1)N(Cc1ccc(-c2cccc(CNCc3ccc4c(c3)OCO4)c2)cc1)C1CCN(Cc2ccccc2)CC1` yielded an XC50 of 0.688 µM.
Work on `CN1CCN(c2ccnc3ccc(NC(=O)Nc4cccc(C#N)c4)cc23)CC1` yielded an XC50 of 0.799 µM.
`CN(C)CCOc1ccc(-c2cc(-c3ccc(Cl)c(O)c3)c(-c3ccncc3)o2)cc1` was tested, and the XC50 was 1.45 µM.
In the case of `CCCOc1ccc(NC(=O)c2cccs2)cc1Cl`, the XC50 is reported as 0.859 µM.
`c1ccc(CCNCc2ccc(-c3ccc(CNc4ccc5ncccc5c4)cc3)cc2)cc1` was tested, and the XC50 was 0.916 µM.
`Cc1ccc(Cc2cnc(CN3CCCCC3)c(O)c2)cc1` gave an XC50 of 0.89 µM.
Compound `COc1ccc2nccc([C@@H](O)CN3CCC(NCc4cc5ccccn5n4)CC3)c2c1` has an XC50 of 1.57 µM.
`COc1ccc2nccc([C@@H](O)CN3CCC(NCc4cc5cc([N+](=O)[O-])ccc5[nH]4)CC3)c2c1` was tested, and the XC50 was 0.117 µM.
Compound `CCCCNC(=O)[C@@H](NC(=O)c1ccc(O)c(-c2ccc(Cl)c(Cl)c2)c1)C(C)C` has an XC50 of 0.23 µM.
Compound `Cn1cncc1CNCc1ccc(-c2cccc(-c3nc4ccccc4[nH]3)c2)cc1` has an XC50 of 0.234 µM.
In the case of `NC(=O)c1cc2nc(Nc3ccc(F)cc3)nc(Nc3ccc(S(N)(=O)=O)cc3)c2[nH]1`, the XC50 is reported as 0.795 µM.
`O=C(Cn1c(CCc2cccc(F)c2F)nc(=O)c2ccccc21)N(CCN1CCCCC1)Cc1ccc(-c2ccc(C(F)(F)F)cc2)cc1` was tested, and the XC50 was 0.757 µM.
Work on `COc1cc(C(=O)NC2CC(C)(C)N(C)C(C)(C)C2)ccc1-c1nc2cc(Cl)c(Cl)cc2[nH]1` yielded an XC50 of 0.788 µM.
Work on `Cc1nc2nc(N)nc(N)c2c(C)c1Cc1cccc(C(N)=O)c1` yielded an XC50 of 1.08 µM.
Work on `COc1ccc(-c2nc3ccc(C)nc3nc2-c2ccc(OC)cc2)cc1` yielded an XC50 of 1.11 µM.
Compound `CCCCn1c(C(C)Oc2ccc(Cl)cc2Cl)nc2cc(S(N)(=O)=O)ccc21` (stereo not drawn) has an XC50 of 0.707 µM.
`CCOc1cc(C(=O)N[C@@H](Cc2ccccc2)[C@H](O)CNCc2cccc(OC)c2)cc(N2CCCCS2(=O)=O)c1` gave an XC50 of 0.721 µM.
In the case of `CCCc1cc(OCCCOc2ccccc2)ccc1OCCCON1C(=N)N=C(N)NC1(C)C`, the XC50 is reported as 0.0032 µM.
Work on `CCC(C)NCCC(c1ccccc1)c1ccccc1O` (stereo not drawn) yielded an XC50 of 0.788 µM.
`O=C(CCC1CCCC1)N(Cc1ccc(-c2ccc(CNCCc3ccccn3)cc2)cc1)CC1CCCCN1` (stereo not drawn) was tested, and the XC50 was 1.15 µM.
In the case of `COc1ccc(-c2ccc3c(-c4cccc(S(C)(=O)=O)c4)cnc(N)c3c2)cc1`, the XC50 is reported as 1.33 µM.
In the case of `COC(=O)c1ccc(CC(C)NCC(O)c2ccccc2Cl)cc1` (stereo not drawn), the XC50 is reported as 1.01 µM.
Work on `COc1c(C)cc(I)cc1CNCCCNc1cc(=O)c2ccccc2[nH]1` yielded an XC50 of 1.28 µM.
Work on `Cc1cccc2nc(-c3ccc(-c4cccc(CNC(C)C)c4)s3)[nH]c12` yielded an XC50 of 0.231 µM.
`CN1CCC[C@H]1COc1ccc(CN2CC[C@H](NC(=O)c3ccc(Cl)c(Cl)c3)C2)cc1Cl` showed an XC50 of 1.15 µM.
In the case of `O=C(O)/C=C/c1cccc(F)c1F`, the XC50 is reported as 0.0961 µM.
For `c1ccc(OCCCCN2CCCCC2)cc1`, the XC50 was 0.537 µM.
Work on `COc1cc(C(=O)Nc2cccc(-c3cn4ccc(C)cc4n3)c2)cc(OC)c1OC` yielded an XC50 of 0.761 µM.
`O=C(NCc1cccc2ccccc12)c1ccc(CNC2CCN(Cc3ccccc3)CC2)cc1` gave an XC50 of 0.838 µM.
`Nc1nc(N)c2cc(NC(=O)c3ccc(Cl)c(Cl)c3)ccc2n1` showed an XC50 of 0.146 µM.
In the case of `O=C(Nc1ccsc1)Nc1cccc(-c2ccc(-c3nc4cc(C(F)(F)F)ccc4[nH]3)cc2)c1`, the XC50 is reported as 0.351 µM.
Compound `COc1ccc2ncc(F)c(CCN3CCC(CNCc4cccc5c4OCO5)CC3)c2n1` has an XC50 of 0.934 µM.
Work on `Oc1c(CN2CCCC(C(F)(F)F)C2)cc(Cl)c2ccccc12` (stereo not drawn) yielded an XC50 of 1.57 µM.
With `N=C1N=C(N)NC2(CCCCC2)N1OCC1CCCCC1` the XC50 was 0.155 µM.
`N=c1c2c(n(Cc3cccc(Cl)c3)c3c1CCC3)CCCC2` was tested, and the XC50 was 0.194 µM.
`COc1cc2c(cc1S(=O)(=O)c1ccc(NC(=O)c3ccc4ccccc4c3)cc1)CCN(C)CC2` gave an XC50 of 0.797 µM.
